Measurements published in patent publication US20050070532A1, “Aryl compounds as modulators of PPARS and methods of treating metabolic disorders” (priority 2003, published 2005).

Assays:
hPPARα = target: T1, hPPARα (Homo sapiens, UniProt Q07869); test: cell-based human PPAR-GAL4 chimera luciferase reporter assay in CV-1 cells (PPARα); conditions: CV-1 cells transiently transfected with PPAR LBD-GAL4 chimera and luciferase reporter, 24 hours treatment; read-out: hPPAPα (EC50)
T1 construct: expressed in transfected cells; host or cells: CV-1 cells
T1 sequence (Q07869 239-466 limits assumed): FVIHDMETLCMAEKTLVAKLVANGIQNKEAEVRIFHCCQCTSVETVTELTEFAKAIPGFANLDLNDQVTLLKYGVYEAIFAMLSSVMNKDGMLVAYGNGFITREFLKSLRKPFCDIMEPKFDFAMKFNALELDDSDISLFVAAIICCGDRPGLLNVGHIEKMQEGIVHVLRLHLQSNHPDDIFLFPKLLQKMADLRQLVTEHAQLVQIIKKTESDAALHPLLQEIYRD
Description: (§1) The compounds were evaluated in a cell-based assay to determine their human PPAR activity. The plasmids for human PPAR-GAL4 chimeras were prepared by fusing amplified cDNAs encoding the LBDs of PPARs to the C-terminal end of the yeast GAL4 DNA binding domain. CV-1 cells were grown and transiently tranfected with PerFectin (GTS, San Diego, Calif.) according to the manufacturer's protocol along with a luciferase reporter. Eight hours after transfection, 50 μL of cells were replated into 384 well plates (1×10^5 cells/well). Sixteen hours after replating, cells were treated with either compounds or 1% DMSO for 24 hours. Luciferase activity was then assayed with Britelite (Perkin Elmer) following the manufacturer's protocol and measured with either the Perkin Elmer Viewlux or Molecular Devices Acquest.

hPPARγ = target: T2, hPPARγ (Homo sapiens, UniProt P37231); test: cell-based human PPAR-GAL4 chimera luciferase reporter assay in CV-1 cells (PPARγ); conditions: CV-1 cells transiently transfected with PPAR LBD-GAL4 chimera and luciferase reporter, 24 hours treatment
T2 construct: expressed in transfected cells; host or cells: CV-1 cells
T2 sequence (P37231 238-503 limits assumed): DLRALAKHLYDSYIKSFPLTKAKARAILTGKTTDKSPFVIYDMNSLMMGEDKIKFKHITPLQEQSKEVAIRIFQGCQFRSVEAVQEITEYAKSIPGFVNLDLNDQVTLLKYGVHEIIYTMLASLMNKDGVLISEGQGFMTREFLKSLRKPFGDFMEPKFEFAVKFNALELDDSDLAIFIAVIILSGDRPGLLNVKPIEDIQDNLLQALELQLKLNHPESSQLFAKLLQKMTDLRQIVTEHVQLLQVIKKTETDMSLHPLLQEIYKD
Description: as §1

hPPARδ = target: T3, hPPARδ (Homo sapiens, UniProt Q03181); test: cell-based human PPAR-GAL4 chimera luciferase reporter assay in CV-1 cells (PPARδ); conditions: CV-1 cells transiently transfected with PPAR LBD-GAL4 chimera and luciferase reporter, 24 hours treatment
T3 construct: expressed in transfected cells; host or cells: CV-1 cells
T3 sequence (Q03181 211-439 limits assumed): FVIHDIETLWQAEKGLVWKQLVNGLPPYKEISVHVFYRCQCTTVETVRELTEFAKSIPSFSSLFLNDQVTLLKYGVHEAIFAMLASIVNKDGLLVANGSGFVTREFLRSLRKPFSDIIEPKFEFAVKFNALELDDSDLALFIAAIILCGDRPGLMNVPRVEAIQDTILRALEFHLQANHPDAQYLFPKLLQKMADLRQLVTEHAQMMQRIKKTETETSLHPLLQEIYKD
Description: as §1

| Structure (SMILES) | EC50 (hPPARα) [µM] | EC50 (hPPARγ) [µM] | EC50 (hPPARδ) [µM] |
| --- | --- | --- | --- |
| CCc1cnc(N(CCCOc2cccc(CC(=O)O)c2)Cc2ccc(C(F)(F)F)cc2C(F)(F)F)nc1 | < 1 | < 1 | < 1 |
| CCCCN(CCCOc1cccc(CC(=O)O)c1)c1ncc(CC)cn1 | > 100 | < 1 | 1 to 100 |
| CCCCN(CCCOc1cccc(CC(=O)O)c1)c1ccccn1 | > 100 | < 1 | 1 to 100 |
| CCCCN(CCCOc1cccc(CC(=O)O)c1)c1nc2ccccc2s1 | 1 to 100 | > 100 | 1 to 100 |
| CCCCN(CCCOc1cccc(CC(=O)O)c1)c1nc2ccccc2o1 | 1 to 100 | > 100 | 1 to 100 |
| O=C(O)Cc1cccc(OCCCN(Cc2ccc(C(F)(F)F)cc2)c2nc3ccccc3s2)c1 | < 1 | < 1 | < 1 |
| O=C(O)Cc1cccc(OCCCN(Cc2ccc(C(F)(F)F)cc2C(F)(F)F)c2nc3ccccc3s2)c1 | > 100 | < 1 | 1 to 100 |
| O=C(O)Cc1cccc(OCCCN(Cc2ccc(C(F)(F)F)cc2C(F)(F)F)c2nc3ccccc3o2)c1 | > 100 | < 1 | 1 to 100 |
| O=C(O)Cc1cccc(OCCCN(Cc2ccc(C(F)(F)F)cc2C(F)(F)F)c2ccccn2)c1 | > 100 | < 1 | < 1 |
| CCc1cnc(N(CCCOc2c(C(=O)O)ccc3ccccc23)Cc2ccc(C(F)(F)F)cc2C(F)(F)F)nc1 | 1 to 100 | < 1 | > 100 |
| CCc1cnc(N(CCCOc2ccc3cc(C(=O)O)ccc3c2)Cc2ccc(C(F)(F)F)cc2C(F)(F)F)nc1 | > 100 | > 100 | > 100 |
| CCc1cnc(N(CCCOc2cc3ccccc3cc2C(=O)O)Cc2ccc(C(F)(F)F)cc2C(F)(F)F)nc1 | 1 to 100 | < 1 | > 100 |
| CCCCN(CCCOc1c(C(=O)O)ccc2ccccc12)c1ncc(CC)cn1 | > 100 | < 1 | > 100 |
| CCCCN(CCCOc1c(C(=O)O)ccc2ccccc12)c1ccccn1 | > 100 | < 1 | > 100 |
| CCCCN(CCCOc1c(C(=O)O)ccc2ccccc12)c1nc2ccccc2s1 | > 100 | 1 to 100 | 1 to 100 |
| O=C(O)c1ccc2ccccc2c1OCCCN(Cc1ccc(C(F)(F)F)cc1)c1nc2ccccc2s1 | > 100 | < 1 | > 100 |
| CCCCN(CCCOc1c(C(=O)O)ccc2ccccc12)c1nc2ccccc2o1 | > 100 | 1 to 100 | > 100 |
| O=C(O)c1ccc2ccccc2c1OCCCN(Cc1ccc(C(F)(F)F)cc1C(F)(F)F)c1nc2ccccc2o1 | > 100 | < 1 | > 100 |
